Where “and” joins values, the source holds several entries; their conditions need not be identical. Identical values can stand only once.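 Interpolation was linear, between the two tested concentrations surrounding the appropriate level; five concentrations were tested over 48 hours in 96-well plates. GI50 = concentration required for 50% inhibition of growth. TGI marks complete inhibition of growth.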

The subject of one assay is A498 renal. Nature of the assay: inhibition of tumour cell growth, NCI panel, 48 h.
Turning to `COc1c(C)c2c(c(O)c1C/C=C(\C)CCC(=O)O)C(=O)OC2`, the GI50 was 0.42 µM and the TGI was above 100 µM.
For `Cc1cc(O)c(C(C)C)cc1S(=O)(=O)O` (tested in a mixture with another compound), in that order: 0.244 µM and 2.16 µM.
For `O=[N+]([O-])c1cc(C(F)(F)F)cc([N+](=O)[O-])c1CCl`, the TGI worked out at 38 µM.
On the same count and under the same terms, under `COc1cc(C[C@H]2c3cc(OC)c(OC)cc3CCN2C)c(Oc2cc3c(cc2OC)-c2c(OC)c(OC)cc4c2[C@H](C3)N(C)CC4)cc1OC` stands 25.1 µM and 21.2 µM; under `CCOC(=O)N1CCN(C=S)CC1`, above 100 µM.
Still for that read-out and setting: under `CCc1cc(C(=O)OC)cn1C(=N)c1ccc(Cl)cc1` stands above 100 µM; under `COc1cc(OC(=O)c2ccccc2)cc2c1C(=O)C=CC2=O`, 37.8 µM.
`Cc1cc(=O)n(-c2ccccc2C)c(C)n1` yielded a TGI above 100 µM.
Consider `COc1cc2c(c(OC)c1OC)-c1ccc(SC)c(=O)cc1C(CO)C2` (stereo unspecified), for which the GI50 was below 0.01 µM.
`CC1CCC(NC(=O)N(CCCl)N=O)CC1` (stereo unspecified) gave a TGI of 124 µM.
As to `CCC[CH2][Sn]1([CH2]CCC)[O]C(=O)c2cccnc2[O]1`, the GI50 is 2.72 µM and the TGI was 7.27 µM.
In turn, `CCOc1ccccc1N1C(=O)C(=O)C(c2nc3ccccc3o2)C(=O)C1=O` yielded a TGI above 100 µM.
Same read-out and setting: under `CCS(CC)(CC)CC1CCCC2=CCC(P(=O)(c3ccccc3)c3ccccc3)CC21` (stereo unspecified) stands 28 µM.

For a further assay, the system named is ACHN renal. Nature of the assay: inhibition of tumour cell growth, NCI panel, 48 h.
On to `COc1c(C)c2c(c(O)c1C/C=C(\C)CCC(=O)O)C(=O)OC2`, for which the GI50 is 0.457 µM and the TGI is above 100 µM.
As for `Cc1cc(O)c(C(C)C)cc1S(=O)(=O)O` (tested in a mixture with another compound), the GI50 was 1.04 µM; the TGI is > 100 µM and 10.9 µM.
`O=[N+]([O-])c1cc(C(F)(F)F)cc([N+](=O)[O-])c1CCl`: the TGI is 27.9 µM.
For `COc1cc(C[C@H]2c3cc(OC)c(OC)cc3CCN2C)c(Oc2cc3c(cc2OC)-c2c(OC)c(OC)cc4c2[C@H](C3)N(C)CC4)cc1OC`, the GI50 was 14.5 µM; the TGI was 30 µM and 27.5 µM.
`CCOC(=O)N1CCN(C=S)CC1` had a TGI above 100 µM.
In the case of `CCc1cc(C(=O)OC)cn1C(=N)c1ccc(Cl)cc1`, the TGI is above 100 µM.
Consider `COc1cc(OC(=O)c2ccccc2)cc2c1C(=O)C=CC2=O`, for which the TGI was determined as 26.4 µM.
The same measure, in the same setting: under `Cc1cc(=O)n(-c2ccccc2C)c(C)n1` stands above 100 µM.
As for `COc1cc2c(c(OC)c1OC)-c1ccc(SC)c(=O)cc1C(CO)C2` (stereo unspecified), the GI50 is below 0.01 µM and the TGI is above 100 µM.
As for `CC1CCC(NC(=O)N(CCCl)N=O)CC1` (stereo unspecified), the GI50 was 31.6 µM; the TGI is 91.7 µM and 103 µM.
Take `CCC[CH2][Sn]1([CH2]CCC)[O]C(=O)c2cccnc2[O]1`: the GI50 is 2.14 µM and the TGI turned out to be 5.21 µM.
In turn, `CCOc1ccccc1N1C(=O)C(=O)C(c2nc3ccccc3o2)C(=O)C1=O` showed a TGI above 100 µM.
The same measure, in the same setting: under `CCS(CC)(CC)CC1CCCC2=CCC(P(=O)(c3ccccc3)c3ccccc3)CC21` (stereo unspecified) stands 22.4 µM.

The subject of the next assay is DLD-1 colon. Briefly: inhibition of tumour cell growth, NCI panel, 48 h.
For the compound `COc1c(C)c2c(c(O)c1C/C=C(\C)CCC(=O)O)C(=O)OC2`, the TGI was above 100 µM.
As for `Cc1cc(O)c(C(C)C)cc1S(=O)(=O)O` (tested in a mixture with another compound), the TGI was above 100 µM.
The same measure, in the same setting: under `O=[N+]([O-])c1cc(C(F)(F)F)cc([N+](=O)[O-])c1CCl` stands 4.65 µM; under `COc1cc(C[C@H]2c3cc(OC)c(OC)cc3CCN2C)c(Oc2cc3c(cc2OC)-c2c(OC)c(OC)cc4c2[C@H](C3)N(C)CC4)cc1OC`, 40.8 µM and 28.3 µM; under `CCOC(=O)N1CCN(C=S)CC1`, above 100 µM.
Still for that read-out and setting: under `CCc1cc(C(=O)OC)cn1C(=N)c1ccc(Cl)cc1` stands above 100 µM; under `COc1cc(OC(=O)c2ccccc2)cc2c1C(=O)C=CC2=O`, 35.5 µM; under `Cc1cc(=O)n(-c2ccccc2C)c(C)n1`, above 100 µM.
For `COc1cc2c(c(OC)c1OC)-c1ccc(SC)c(=O)cc1C(CO)C2` (stereo unspecified), the GI50 was below 0.01 µM.
Regarding `CC1CCC(NC(=O)N(CCCl)N=O)CC1` (stereo unspecified), the GI50 was 22.3 µM; the TGI was 47.7 µM and 79.4 µM.
As for `CCC[CH2][Sn]1([CH2]CCC)[O]C(=O)c2cccnc2[O]1`, the GI50 is 3.11 µM and the TGI was found to be 10.7 µM.
`CCOc1ccccc1N1C(=O)C(=O)C(c2nc3ccccc3o2)C(=O)C1=O` returned a TGI above 100 µM.
Still for that read-out and setting: under `CCS(CC)(CC)CC1CCCC2=CCC(P(=O)(c3ccccc3)c3ccccc3)CC21` (stereo unspecified) stands 28.7 µM.

In another assay the test system is DMS 114 small cell lung. Briefly: inhibition of tumour cell growth, NCI panel, 48 h.
Take `COc1c(C)c2c(c(O)c1C/C=C(\C)CCC(=O)O)C(=O)OC2`: the TGI turned out to be 78.3 µM.
Still for that read-out and setting: under `Cc1cc(O)c(C(C)C)cc1S(=O)(=O)O` (tested in a mixture with another compound) stands above 100 µM.
The same measure, in the same setting: under `O=[N+]([O-])c1cc(C(F)(F)F)cc([N+](=O)[O-])c1CCl` stands 1.95 µM.
For the compound `COc1cc(C[C@H]2c3cc(OC)c(OC)cc3CCN2C)c(Oc2cc3c(cc2OC)-c2c(OC)c(OC)cc4c2[C@H](C3)N(C)CC4)cc1OC`, the GI50 is 4 µM; the TGI was 18 µM and 14.4 µM.
For `CCOC(=O)N1CCN(C=S)CC1`, the TGI was above 100 µM.
Same read-out and setting: under `CCc1cc(C(=O)OC)cn1C(=N)c1ccc(Cl)cc1` stands above 100 µM.
The same measure, in the same setting: under `COc1cc(OC(=O)c2ccccc2)cc2c1C(=O)C=CC2=O` stands 30.2 µM; under `Cc1cc(=O)n(-c2ccccc2C)c(C)n1`, above 100 µM.
`COc1cc2c(c(OC)c1OC)-c1ccc(SC)c(=O)cc1C(CO)C2` (stereo unspecified): the GI50 was below 0.01 µM.
Regarding `CC1CCC(NC(=O)N(CCCl)N=O)CC1` (stereo unspecified), the GI50 was 19 µM; the TGI was 40.4 µM and 87.3 µM.
As to `CCC[CH2][Sn]1([CH2]CCC)[O]C(=O)c2cccnc2[O]1`, the GI50 was 1.95 µM and the TGI was 4.05 µM.
Compound `CCOc1ccccc1N1C(=O)C(=O)C(c2nc3ccccc3o2)C(=O)C1=O` had a TGI above 100 µM.
`CCS(CC)(CC)CC1CCCC2=CCC(P(=O)(c3ccccc3)c3ccccc3)CC21` (stereo unspecified) registered a TGI of 24.8 µM.

Another assay concerns HCT-116 colon. Nature of the assay: inhibition of tumour cell growth, NCI panel, 48 h.
Take `COc1c(C)c2c(c(O)c1C/C=C(\C)CCC(=O)O)C(=O)OC2`: the GI50 was 0.145 µM and the TGI is above 100 µM.
For `Cc1cc(O)c(C(C)C)cc1S(=O)(=O)O` (tested in a mixture with another compound), the GI50 is 0.343 µM.
Compound `O=[N+]([O-])c1cc(C(F)(F)F)cc([N+](=O)[O-])c1CCl` registered a TGI of 2.46 µM.
For `COc1cc(C[C@H]2c3cc(OC)c(OC)cc3CCN2C)c(Oc2cc3c(cc2OC)-c2c(OC)c(OC)cc4c2[C@H](C3)N(C)CC4)cc1OC`, the GI50 was 10.4 µM; the TGI was 14 µM and 22.4 µM.
On to `CCOC(=O)N1CCN(C=S)CC1`, for which the TGI is above 100 µM.
For the compound `CCc1cc(C(=O)OC)cn1C(=N)c1ccc(Cl)cc1`, the TGI is above 100 µM.
Consider `COc1cc(OC(=O)c2ccccc2)cc2c1C(=O)C=CC2=O`, for which the TGI worked out at 13.5 µM.
On the same count and under the same terms, under `Cc1cc(=O)n(-c2ccccc2C)c(C)n1` stands above 100 µM.
Consider `COc1cc2c(c(OC)c1OC)-c1ccc(SC)c(=O)cc1C(CO)C2` (stereo unspecified), for which the GI50 is below 0.01 µM.
As for `CC1CCC(NC(=O)N(CCCl)N=O)CC1` (stereo unspecified), the GI50 was 30.2 µM; the TGI was 90.4 µM and 85.6 µM.
Take `CCC[CH2][Sn]1([CH2]CCC)[O]C(=O)c2cccnc2[O]1`: the GI50 is 3.61 µM and the TGI was determined as 11.4 µM.

The values above are taken from PubChem BioAssay (NCI).
